Test results: PubChem BioAssay (NCI)
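Dose response: 5 concentrations. Exposure: 48 h. Format: 96-well plates. Endpoint: linear interpolation; highest concentration if not reached. GI50 = concentration required for 50% inhibition of growth. TGI: total growth inhibition.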

Columns and labels:
Assay in all cases: DTP human tumour cell line panel, 48 h
[1] = test system: NCI-H522 lung
[2] = test system: HCT-15 colon
[3] = test system: M14 melanoma
[4] = test system: PC-3 prostate
[5] = test system: OVCAR-3 ovarian
[6] = test system: HOP-62 NSCLC
[7] = test system: A498 renal
[8] = test system: 786-0 renal
[9] = test system: SK-MEL-2 melanoma
[10] = test system: OVCAR-8 ovarian
[11] = test system: SK-OV-3 ovarian
[12] = test system: RPMI-8226 leukemia
[13] = test system: COLO 205 colon
[14] = test system: BT-549 breast
[15] = test system: SK-MEL-5 melanoma
[16] = test system: MDA-MB-231 breast
[17] = test system: K-562 leukemia
[18] = test system: HCC-2998 colon
[19] = test system: NCI/ADR-RES ovarian
[20] = test system: A549 NSCLC
[21] = test system: SNB-75 CNS
[22] = test system: DU-145 prostate
[23] = test system: LOX IMVI melanoma
[24] = test system: HOP-92 NSCLC
[25] = test system: NCI-H226 lung
[26] = test system: TK-10 renal
[27] = test system: HCT-116 colon
[28] = test system: RXF 393 renal
[29] = test system: CAKI-1 renal
[30] = test system: UO-31 renal
[31] = test system: OVCAR-4 ovarian
[32] = test system: SK-MEL-28 melanoma
[33] = test system: EKVX NSCLC
[34] = test system: MDA-MB-435
[35] = test system: MALME-3M melanoma
[36] = test system: CCRF-CEM leukemia
[37] = test system: SR leukemia
[38] = test system: SW-620 colon
[39] = test system: NCI-H23 lung
[40] = test system: MOLT-4 leukemia
[41] = test system: U251 CNS
[42] = test system: ACHN renal
[43] = test system: SN12C renal
[44] = test system: KM12 colon
[45] = test system: T-47D breast
[46] = test system: HT29 colon
[47] = test system: OVCAR-5 ovarian
[48] = test system: MCF7 breast
[49] = test system: HS 578T breast
[50] = test system: UACC-257 melanoma
[51] = test system: SF-295 CNS
[52] = test system: NCI-H460 lung
[53] = test system: HL-60(TB) leukemia
[54] = test system: UACC-62 melanoma
[55] = test system: SF-539 CNS
[56] = test system: SF-268 CNS
[57] = test system: IGROV1 ovarian
[58] = test system: SNB-19 CNS

## O=C(/C=C/c1ccccc1Cl)Nc1ncc(Cc2cc(Cl)ccc2Cl)s1
[1]
  GI50: 0.7 µM
  TGI: 2.56 µM
[2]
  GI50: 0.634 µM
  TGI: > 100 µM
[3]
  GI50: 2.04 µM
  TGI: > 100 µM
[4]
  GI50: 3.86 µM
  TGI: > 100 µM
[5]
  GI50: 3.44 µM
  TGI: > 100 µM
[6]
  GI50: 6.14 µM
  TGI: > 100 µM
[7]
  GI50: 0.975 µM
[8]
  GI50: 5.16 µM
  TGI: > 100 µM
[9]
  GI50: 3.01 µM
  TGI: > 100 µM
[10]
  GI50: 4.03 µM
  TGI: > 100 µM
[11]
  GI50: 7.39 µM
  TGI: > 100 µM
[12]
  GI50: 1.36 µM
  TGI: > 63.8 µM
[13]
  GI50: 1.21 µM
  TGI: > 31.7 µM
[14]
  GI50: 1.15 µM
  TGI: 8.4 µM
[15]
  GI50: 2.8 µM
  TGI: > 100 µM
[16]
  GI50: 2.66 µM
  TGI: > 100 µM
[17]
  GI50: 0.406 µM
  TGI: > 100 µM
[18]
  GI50: 2.71 µM
  TGI: > 100 µM
[19]
  GI50: 2.99 µM
  TGI: > 100 µM
[20]
  GI50: 2.09 µM
  TGI: > 100 µM
[21]
  GI50: 0.576 µM
  TGI: 9.82 µM
[22]
  GI50: 2.04 µM
  TGI: > 100 µM
[23]
  GI50: 1.85 µM
  TGI: > 100 µM
[24]
  GI50: 1.3 µM
[25]
  GI50: 9.17 µM
  TGI: > 100 µM
[26]
  GI50: 7.13 µM
  TGI: > 100 µM
[27]
  GI50: 0.939 µM
  TGI: > 100 µM
[28]
  GI50: 0.916 µM
  TGI: 3.46 µM
[29]
  GI50: 4.23 µM
  TGI: > 100 µM
[30]
  GI50: 6.52 µM
  TGI: > 100 µM
[31]
  GI50: 21.3 µM
  TGI: > 100 µM
[32]
  GI50: 9.29 µM
  TGI: > 100 µM
[33]
  GI50: 2.4 µM
  TGI: > 100 µM
[34]
  GI50: 0.263 µM
  TGI: 0.79 µM
[35]
  GI50: 4.54 µM
  TGI: > 100 µM
[36]
  GI50: 0.909 µM
  TGI: > 100 µM
[37]
  GI50: 0.534 µM
  TGI: > 100 µM
[38]
  GI50: 1.25 µM
  TGI: > 100 µM
[39]
  GI50: 0.686 µM
  TGI: > 100 µM
[40]
  GI50: 1.21 µM
  TGI: > 100 µM
[41]
  GI50: 2.9 µM
  TGI: > 100 µM
[42]
  GI50: 8.28 µM
  TGI: > 100 µM
[43]
  GI50: 1.95 µM
  TGI: > 100 µM
[44]
  GI50: 1.21 µM
  TGI: > 100 µM
[45]
  GI50: 6.72 µM
  TGI: > 100 µM
[46]
  GI50: 2.46 µM
  TGI: > 100 µM
[47]
  GI50: 2.36 µM
  TGI: > 100 µM
[48]
  GI50: 0.674 µM
  TGI: > 100 µM
[49]
  GI50: 1.14 µM
[50]
  GI50: 9.11 µM
  TGI: > 100 µM
[51]
  GI50: 2.34 µM
  TGI: 71.2 µM
[52]
  GI50: 3.6 µM
  TGI: > 100 µM
[53]
  GI50: 1.24 µM
  TGI: 5.7 µM
[54]
  GI50: 3.27 µM
  TGI: > 100 µM
[55]
  GI50: 2.79 µM
  TGI: 13.6 µM
[56]
  GI50: 12.5 µM
  TGI: > 100 µM
[57]
  GI50: 1.31 µM
  TGI: > 100 µM
[58]
  GI50: 4.23 µM
  TGI: > 100 µM
